From article PMC3088537, “Production, purification, sequencing and activity spectra of mutacins D-123.1 and F-59.1” (BMC Microbiology, 2011)
Marks after values point to notes of the source that are not given here. Bridge positions count the residues as written; N and C are the ends. Ends that are not written are not given here.

Columns and labels:
Streptococcus salivarius = test: Inhibitory spectrum, critical dilution with spot test; format: cell-based; conditions: purified mutacin, 5 μL spotted on soft agar lawn on TSAYE; reciprocal of highest dilution showing inhibition zone
Method: (§1) Streptococcus mutans 59.1 and 123.1 produce mutacins F-59.1 and D-123.1 respectively. Micrococcus luteus ATCC 272 (ATCC, Manassas, VA, USA) was used as the indicator strain for the mutacin activity assays. All bacteria were routinely grown aerobically at 37°C in TSBYE made of TSB (Difco laboratories, Detroit, MI, USA) supplemented with 0.3% yeast extract (Becton Dickinson & Co., Cockeysville, MD, USA) or on TSAYE plates made of TSA (Difco) enriched with 0.3% yeast extract. Lactobacillus salivarius strain (provided by Sylvain Moineau, Université Laval, Québec, QC, Canada) was cultivated aerobically at 30°C in MRS medium (Oxoid, Nepean, ON, Canada). Other bacterial strains used for the inhibitory spectra determination are described in Mota-Meira et al. and Morency et al.. Staphylococcus carnosus was obtained from the strain collection of the Department of Microbiology, Biochemistry and Bioinformatics (Université Laval).
(§2) Mutacin activity was determined by the spot test using Micrococcus luteus ATCC 272 as sensitive strain where two-fold dilutions were prepared in acidified (pH 2) peptone water (0.5%). Antibacterial activity spectra of purified mutacins was tested against a panel of bacterial strains using the critical dilution method combined with the spot test method as described previously. Briefly, overnight cultures of test strains in TSBYE were diluted in fresh broth before inoculating 5 mL of soft agar (0.75%) in order to obtain confluent lawns of growth on TSAYE plates. Five μL of purified mutacins, diluted in acidified (10 mM HCl) distilled water to promote solubility of the peptides, were deposited on the lawn and allowed to dry before appropriate incubation. Mutacin activity was expressed in AU/mL and corresponds to the reciprocal of the highest dilution showing a noticeable inhibition zone on the lawn.

[1] = system: Enterococcus faecalis ATCC 27235; test: as above; format: cell-based; conditions: purified mutacin, 5 μL spotted on soft agar lawn on TSAYE; reciprocal of highest dilution showing inhibition zone
Method: as §1, §2

[2] = system: Micrococcus luteus ATCC 272; test: Mutacin activity assay (spot test) of preparations during production and purification; format: cell-based
Method: as §1
Purification of the two mutacins was achieved by two hydrophobic chromatography steps as previously described by replacing TFA with HCl (10 mM). Briefly, the active preparation was loaded on a Sep-Pak® Vac 35 cc (10 g) t-C18 Cartridge (Waters Corporation, Milford, MA, USA). Cartridges were first equilibrated with 500 mL of methanol followed by 500 mL of deionized distilled water. Antibacterial compounds were eluted with successive steps of 500 mL of water:methanol mixtures increasing the gradient of methanol by 10% from 0 to 100% in 10 mM HCl. This was carried out at a flow rate of 1 mL/min and UV detection at 214 nm. The final purification step was carried out by reverse phase chromatography (RP)-HPLC analysis (Beckman Gold Model, Coulter Canada Inc., Mississauga, ON, Canada) using an analytical C18 column (Luna 5 μ C18(2), 250 × 4.6 mm, 4 × 3.0 mm, Phenomenex, Torrance, CA, USA). Elution was carried out with solvent A (5% acetonitrile, 10 mM HCl) and solvent B (60% acetonitrile, 10 mM HCl) and recorded at 214 nm. The following program of elution was developed: 0 to 3 min, constant 100% A; 3 to 15 min, a linear gradient from 100% A to 100% B; 15 to 20 min, constant 100% B; 20 to 23 min, a linear gradient from 100% B to 100% A. A flow rate of 1 mL/min was used. The column was maintained at 39°C with a column heater. Active fractions were manually collected, subsequently dried in a Speed-Vac® concentrator (Model SC110A, Savant Instrument Inc. Farmingdale, NY, USA) and then kept at -20°C until processing. Protein concentration in active fractions was determined using the BioRad DC protein assay (BioRad, Mississauga, ON, Canada).
as §2

[3] = system: Micrococcus luteus ATCC 272; test: Inhibitory effect of mutacin F-59.1 on viable count (time-kill); format: cell-based
Method: One milliliter of active preparation (1600 AU/mL) adjusted to pH 7.0 was filter sterilised then added to 10 mL of an early-log-phase culture of Micrococcus luteus ATCC 272 grown in TSBYE. Bacterial culture in TSBYE was used as a negative control. The viable count in CFU/mL was determined at intervals for up to 24 h for samples and control during incubation at 37°C by plating 100 μL of an appropriate dilution in peptone water (0.1%) on TSAYE incubated at 37°C at least 24 h.

L. murrayi HPB 30 = test: Inhibitory spectrum, critical dilution with spot test; format: cell-based, Listeria murrayi; conditions: purified mutacin, 5 μL spotted on soft agar lawn on TSAYE; reciprocal of highest dilution showing inhibition zone
Method: as §1
Mutacin activity was determined by the spot test using Micrococcus luteus ATCC 272 as sensitive strain where two-fold dilutions were prepared in acidified (pH 2) peptone water (0.5%). Antibacterial activity spectra of purified mutacins was tested against a panel of bacterial strains using the critical dilution method combined with the spot test method as described previously. […]

S. aureus R621 = test: as above; format: cell-based, Staphylococcus aureus; conditions: purified mutacin, 5 μL spotted on soft agar lawn on TSAYE; reciprocal of highest dilution showing inhibition zone
Method: as §1, §2

S. aureus ATCC 43300 = test: as above; format: cell-based, Staphylococcus aureus; conditions: purified mutacin, 5 μL spotted on soft agar lawn on TSAYE; reciprocal of highest dilution showing inhibition zone
Method: as §1, §2

S. aureus ATCC 25923 = test: as above; format: cell-based, Staphylococcus aureus; conditions: purified mutacin, 5 μL spotted on soft agar lawn on TSAYE; reciprocal of highest dilution showing inhibition zone
Method: as §1, §2

[4] = system: L. monocytogenes FRDC 1039; test: as above; format: cell-based, Listeria monocytogenes; conditions: purified mutacin, 5 μL spotted on soft agar lawn on TSAYE; reciprocal of highest dilution showing inhibition zone
Method: as §1, §2

[5] = system: L. monocytogenes ATCC 700301 ScottA; test: as above; format: cell-based, Listeria monocytogenes; conditions: purified mutacin, 5 μL spotted on soft agar lawn on TSAYE; reciprocal of highest dilution showing inhibition zone
Method: as §1, §2

[6] = system: L. monocytogenes FRDC 88571; test: as above; format: cell-based, Listeria monocytogenes; conditions: purified mutacin, 5 μL spotted on soft agar lawn on TSAYE; reciprocal of highest dilution showing inhibition zone
Method: as §1, §2

[7] = system: L. monocytogenes ATCC 700302 ScottA; test: as above; format: cell-based, Listeria monocytogenes; conditions: purified mutacin, 5 μL spotted on soft agar lawn on TSAYE; reciprocal of highest dilution showing inhibition zone
Method: as §1, §2

KYYGNGVTCGKHSCSVDWSKATTNI (disulfide 9-14 (inferred)) [mutacin F-59.1, pediocin-like (class IIa) bacteriocin of 25 amino acids produced by Streptococcus mutans 59.1; UniProt P86386]
Activity of mutacin against Streptococcus salivarius ATCC 25923 (Streptococcus salivarius): 800 AU/mL | Activity of mutacin against Enterococcus faecalis ATCC 27235 [1]: 200 AU/mL | Activity ([2]; step: C18 RP-HPLC (purified), spot test on M. luteus ATCC 272, two-fold dilutions): 16000 AU/mL | Specific activity (final, purified mutacin) ([2]; step: C18 RP-HPLC, per mg total protein (BioRad DC assay)): 3.2 × 10^5 AU/mg | Specific activity ([2]; step: Sep-Pak C18, per mg total protein (BioRad DC assay)): 101 AU/mg | Activity ([2]; step: Sep-Pak C18, spot test on M. luteus ATCC 272, two-fold dilutions): 3200 AU/mL | Activity ([2]; step: culture supernatant (crude preparation), spot test on M. luteus ATCC 272, two-fold dilutions in acidified (pH 2) peptone water): 400 AU/mL | Specific activity ([2]; step: culture supernatant, per mg total protein (BioRad DC assay)): 40 AU/mg | Viable count of M. luteus ATCC 272 after addition of purified mutacin ([3]; 160 AU/mL (1 mL of 1600 AU/mL, pH 7.0, added to 10 mL early-log culture in TSBYE), 37°C, followed up to 24 h, CFU/mL by plating): dropped to zero | Mode of action (bactericidal or not) ([3]; 160 AU/mL, M. luteus ATCC 272, 24 h incubation): bactericidal | Activity of mutacin against L. murrayi HPB 30 (L. murrayi HPB 30): 200^b AU/mL | Activity of mutacin against S. aureus R621 (S. aureus R621): 0 AU/mL | Activity of mutacin against S. aureus ATCC 43300 (S. aureus ATCC 43300): 0 AU/mL | Activity of mutacin against S. aureus ATCC 25923 (S. aureus ATCC 25923): 0 AU/mL | Activity of mutacin against L. monocytogenes FRDC 1039 [4]: 200^b AU/mL | Activity of mutacin against L. monocytogenes ATCC 700301 ScottA [5]: 200^b AU/mL | Activity of mutacin against L. monocytogenes FRDC 88571 [6]: 200^b AU/mL | Activity of mutacin against L. monocytogenes ATCC 700302 ScottA [7]: 200^b AU/mL
